Results published in patent US12240813B2, “Deuterated tryptamine derivatives and methods of use” (priority 2020, dated 2025).

Legend:
[1] = target: T1, hrMAO-A (Homo sapiens, UniProt P21397); test: Metabolic stability in the presence of hrMAO-A; assay type: in vitro ADME; conditions: MAO-A; last assay time point 120 min
T1 construct: purchased XenoTech Lot #8213001
T1 sequence (P21397 1-527): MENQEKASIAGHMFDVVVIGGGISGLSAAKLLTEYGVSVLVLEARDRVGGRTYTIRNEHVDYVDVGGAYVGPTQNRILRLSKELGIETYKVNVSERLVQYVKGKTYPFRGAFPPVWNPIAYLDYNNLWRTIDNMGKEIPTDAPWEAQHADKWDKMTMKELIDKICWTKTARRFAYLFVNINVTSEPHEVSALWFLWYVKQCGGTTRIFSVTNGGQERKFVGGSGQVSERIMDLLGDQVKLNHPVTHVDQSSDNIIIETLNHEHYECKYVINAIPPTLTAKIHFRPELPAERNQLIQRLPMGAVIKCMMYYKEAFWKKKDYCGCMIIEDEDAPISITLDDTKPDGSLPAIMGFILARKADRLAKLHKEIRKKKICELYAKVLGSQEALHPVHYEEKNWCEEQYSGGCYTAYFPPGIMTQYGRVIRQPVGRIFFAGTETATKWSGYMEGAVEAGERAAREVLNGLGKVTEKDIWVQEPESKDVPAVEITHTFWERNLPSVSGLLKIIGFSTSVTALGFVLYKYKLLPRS
Procedure: The reaction mixture was prepared as described below. The co-dosed TAs were added into the reaction mixture at a final concentration of 1 microM each. The positive control, kynuramine (25 microM), was run simultaneously with the TAs in a separate reaction. The reaction mixture (without TAs or kynuramine) was equilibrated in a shaking water bath at 37° C. for 5 minutes. The reaction was initiated by the addition of the TAs or kynuramine, and the mixture was incubated in a shaking water bath at 37° C. Aliquots (100 microL) of the TA reaction mixture were withdrawn at 0, 5, 10, 20, 30, 60, and 120 minutes. Aliquots (100 microL) of the positive control reaction mixture were withdrawn at 0 and 30 minutes. TA and kynuramine samples were immediately combined with 100 microL of ice-cold 100% MeCN containing 0.1% formic acid and IS to terminate the reaction. The samples were then mixed and centrifuged to precipitate proteins. All TA samples were assayed by LC-HRAMS. The PARR (analyte to IS) at each time point was compared to the PARR at time 0 to determine the percent remaining at each time point. Reaction composition: hrMAO 0.02 mg/mL; Potassium Phosphate, pH 7.4 100 mM; Magnesium Chloride 5 mM; Test Articles (each) 1 microM.

[2] = tested on: rat liver microsomes; test: Metabolic stability in rat liver microsomes (RLM); conditions: RLM; last assay time point 120 min

SMILES	MAO (metabolized or not) [1]	RLM (metabolized or not) [2]
CCNCCc1c[nH]c2ccccc12 [reference compound]	R	R
CCN(C)CCc1c[nH]c2ccccc12 [reference compound]	R	R
CCN(C)CCc1c[nH]c2ccc(OC)cc12 [reference compound]	R	R
CCN(C)CCc1c[nH]c2ccc(O)cc12 [reference compound]	R	R
CCN(C)CCc1c[nH]c2cccc(OC)c12 [reference compound]	R	R
CN(C)CCc1c[nH]c2ccc(O)cc12 [reference compound]	R	R
COc1cccc2[nH]cc(CCN(C)C)c12 [reference compound]	R	R
CNCCc1c[nH]c2ccccc12 [reference compound]	R	R
CNCCc1c[nH]c2cccc(O)c12 [reference compound]	R	R
